Entries after “also recorded” stand apart in the source; their conditions may differ.
Tests used:
[1] = tested on: Notch signalling via DL4:N1 ligand-receptor pair (Notch1); test: DL4:N1 coculture assay, Notch driven luciferase reporter; type: cell-based, mouse; settings: for DL4:N1 (Notch1) driven pathway activation: 10 μM, 24 hours
Source text: Mouse DL4-IRES dsRED cDNA was cloned into a pENTR1 vector (Invitrogen®) and finally shuttled into a destination lentivirus vector using Gateway cloning strategy (Invitrogen). A Phosphoglycerate kinase (PGK) promoter drove the expression of DL4 protein. DL4-lentiviral particles were produced in 293T cells by cotransfection of DL4-lentivirus vector, Gag/pol expression plasmid and plasmid encoding for viral envelope proteins. To overexpress Notch1 protein, mouse full length Notch1 cDNA was a cloned in a pCDNA3.1-IRES-puromycin vector. Notch1 cDNA was cloned upstream of IRES-puromycin between HindIII and XbaI restriction sites. A CMV promoter controlled the expression of Notch1 protein.
(§1) To measure the Notch signalling activation, CSL/RBP-jk consensus DNA binding sequences were cloned in a head to tail conformation in the pGL4 luciferase vector (Promega), thus named 12×CSL/RBP-jjk luciferase vector. In order to determine the Notch pathway activation in chemical compound screening assay, 12×CSL/RBP-jk consensus DNA binding sequences were cloned into pGL4.26.luciferase vector (Promega). As an internal control for transfection efficiency, SV40 Renilla vector was used (Promega).
In order to generate DL4 and N1 stable cell lines, HeLa cell were bought from ATCC (catalog # CCL-2). To generate DL4 stable lines, cells were transduced with DL4-lentiviral particles. DL4 stable clones were selected using puromycin. High DL4 expressing clones were sorted using antibodies against DL4 with Fluorescence activated cell sorting (FACS). To generate N1 stable line, cell were transfected with a pCDNA3.1+(Invitrogen) plasmid containing mouse full length Notch1 under the control of CMV promoter. To select for Notch1 expressing clones, an IRES puromycin cassette was cloned downstream of Notch1 cDNA. HeLa cells expressing high levels of Notch1 were enriched by FACS using anti-Notch1 antibodies. DL4- and N1-HeLa cells were cultured in DMEM (GIBCO, Invitrogen), 10% FCS and 10 ug/ml of puromycin (Sigma).
For chemical library screen, the coculture assay was performed as follows. N1-HeLa cells were cotransfected in 10 cm tissue culture dishes with 16 μg of pGL4.26. 12×CSL.luciferase vector/plate, 4 μg of Notch1 expression plasmid/plate, and 200 ng of SV40 Renilla vector/plate. DL4- and N1-HeLa cells were detached from the plate by using 0.5 mM EDTA (1×PBS). The both cell populations were counted and mixed in 1:1 ratio (5,000:5,000 cells/well in a 384 well plate) and dispensed into 384 well plates (white, clear bottom, Corning) using multidrop Combi plate dispenser. The assay plates were pre-dispensed (using automated Biomek 3000 liquid handler) with chemical compound libraries (Microsource NIMDS, Maybridge Hitfinder and Prestwick) to give a final concentration of 10 μM. The final assay volume was 22 μls. Twenty-four hours later, growth media was aspirated and cells were lysed with 1× Passive lysis buffer for 10 minutes at room temperature. Luciferase activity was measured using Luciferase Assay Reagent II and Renilla values were determined by using Stop and Glow reagent (Dual luciferase assay system, Cat #E1980, Promega). Luciferase and renilla readouts were taken using Tecan® F500 (Tecan) multiplate reader. All the liquid handling steps (aspiration of the medium, dispensing of Passive lysis buffer, Luciferase Assay Reagent II and Stop and Glow reagents) were performed using ELF406 liquid handler.
In order to identify novel modulators of the Notch pathway, Applicants have established a coculture assay in which DL4 ligand expressing HeLa cells were cultured with N1 HeLa cells, thereby activating the Notch pathway. The use of a DL4 and N1 HeLa cell coculture system mimics physiological conditions of cell-cell communication between ligand and receptor expressing cells. The in vitro generation of a controlled receptor-ligand assay system allowed Applicants to modify and monitor the Notch signal intensity by γ-secretase inhibitors. […]

[2] = tested on: Notch1-intracellular domain (NICD) mediated Notch signalling; test: NICD transfected HeLa cells, 12×CSL luciferase reporter; type: cell-based; settings: HeLa cells transfected with NICD; I3 2-40 μM, DAPT 5-40 μM
Source text: as §1
NICD-GFP overexpression studies were performed using pEGFP-C1-NICD expression plasmid. The FLAG-CMV2 plasmid expressing MAML1-FLAG was a kind gift from Dr. Lizi Wu, Harvard Medical School, Boston.
The transfected cells were treated with an increasing concentration of I3 and DAPT.

DND41-Parental cell line = test: Alamar blue proliferation assay, DND41-Parental; type: cell-based, human; settings: over 5 days
Procedure: FIGS. 5A-5E show 6-(4-Tert-Butylphenoxy)Pyridin-3-Amine (I3) blocks NICD dependent growth of human cancer cells. […] Western blot analyses were carried out for Hes1 protein using Hes1 specific antibodies. […] Growth kinetics of the parental cell line was followed over 5 days using Alamar blue readout. […] This mutation renders this cell line insensitive to γ-secretase inhibitor treatment. […] The cells were treated with DMSO, γ-secretase inhibitor DAPT and I3 for 6 days. Alamar blue readout was taken at day 0, day 2, day 4 and day 6. Eight replicates were used for each treatment and time point. […] P values were calculated using Student's t.test. *=p value<0.05. ns=not significant.
Alamarblue® proliferation assays were performed to determine the growth kinetics of Notch inhibitor treated cells. […] In metabolically active and proliferating cells, resazurin is converted to resorufin due to an intrinsic reducing power of live cells and produces a red fluorescence. […]
Proliferation assays were performed by seeding 5000 cells/well in a 96 well plate. […] Alamarblue readout was taken using Tecan F500 (Tecan) multiplate reader.
6-(4-Tert-Butylphenoxy)Pyridin-3-Amine (I3) can block NICD mediated activation of the Notch pathway (FIGS. 1A-D). […] In addition, these two cell lines were also monitored over several days for anti-proliferative effects of 6-(4-Tert-Butylphenoxy)Pyridin-3-Amine (I3) and DAPT.

[3] = tested on: Notch signalling via DL4:N1 ligand-receptor pair (Notch1); test: DL4:N1 coculture assay, Notch driven luciferase reporter; type: cell-based, mouse; settings: 24 hours; for Notch signalling activation (Notch driven luciferase), concentration dependence: 2, 5 and 10 μM

downregulation of Notch signalling activation ([1]; 10 μM DAPT vs DMSO, 384 well plate)	Structure (SMILES)	DL4:N1 (Notch1) driven pathway activation [1]	NICD mediated Notch signalling activation [2]	proliferation (Alamar blue) (DND41-Parental cell line)	Notch signalling activation (Notch driven luciferase), concentration dependence [3]	IC50 value, Notch signalling in DL4:N1 coculture assay ([3]; increasing concentration 2-10 μM)
	CC(C)(C)c1ccc(Oc2ccc(N)cn2)cc1 [I3, 6-(4-Tert-Butylphenoxy)Pyridin-3-Amine]	caused an inhibition of Notch signalling via both DL4:N1 and DL4:N2 ligand-receptor pairs; also recorded: block Notch1 and Notch2 induced pathway activation	could block pathway activation in a dose-dependent manner; also recorded: could also block pathway activation by Notch1-intracellular domain (NICD) and Notch2-intracellular domain (N2-ICD); also recorded: led to an attenuation of the signalling; also recorded: inhibits pathway activation via intracellular domains of Notch1 (NICD) and Notch2 (N2-ICD); also recorded: found to block NICD mediated pathway activation	caused a significant proliferative block; also recorded: caused a proliferation arrest	blocks Notch signalling in a concentration dependent manner; also recorded: causes a concentration dependent decrease in Notch signalling activation	in the lower μM range
10 fold	C[C@H](NC(=O)Cc1cc(F)cc(F)c1)C(=O)N[C@H](C(=O)OC(C)(C)C)c1ccccc1 [DAPT, N—[N-(3,5-difluorophenacetyl-Lalanyl)]-(S)-phenylglycine t-butyl ester, reference compound]	block Notch1 and Notch2 induced pathway activation	had no effect on the signalling activation; also recorded: had no effect on Notch signalling activation mediated by NICD	caused a significant proliferative block; also recorded: caused a proliferation arrest	causes a concentration dependent decrease in Notch signalling activation	

— patent US10054581B1, “Inhibitors of notch signaling pathway and use thereof in treatment of cancers” (Ecole Polytechnique Federale de Lausanne (EPFL), priority 2011, dated 2018)
